Common to all, as to test: relative viability (nuclei count vs DMSO), 5 days (fraction); higher = more cells survive
Compound in the experiment “PAC-1 + Tozasertib”: C=CCc1cccc(/C=N/NC(=O)CN2CCN(Cc3ccccc3)CC2)c1O [PAC-1] + Cc1cc(Nc2cc(N3CCN(C)CC3)nc(Sc3ccc(NC(=O)C4CC4)cc3)n2)n[nH]1 [Tozasertib] (partner 0.1 µM)
In outline:
(§1)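 One day after seeding in 1536-well plates, lung cancer cell lines were dosed by pin tool. Dosing was either single-drug or a fixed anchor-drug dose plus five library-drug doses (not always all listed) in √10 steps. After 5 days, nuclei were stained in one fix-and-stain step and counted on 4× images, and relative viability is the nuclei count of treated wells over that of vehicle wells, given as the median of duplicate plates.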

Compound in the experiment “PAC-1 + Linsitinib”: C=CCc1cccc(/C=N/NC(=O)CN2CCN(Cc3ccccc3)CC2)c1O [PAC-1] + C[C@]1(O)C[C@@H](c2nc(-c3ccc4ccc(-c5ccccc5)nc4c3)c3c(N)nccn32)C1 [Linsitinib] (partner 1 µM)
The essentials:
as §1

Compound in the experiment “Ibrutinib + Crizotinib”: C=CC(=O)N1CCC[C@@H](n2nc(-c3ccc(Oc4ccccc4)cc3)c3c(N)ncnc32)C1 [Ibrutinib] + C[C@@H](Oc1cc(-c2cnn(C3CCNCC3)c2)cnc1N)c1c(Cl)ccc(F)c1Cl [Crizotinib] (partner 1 µM)
In outline: as §1

Compound in the experiment “Ibrutinib + Decitabine”: C=CC(=O)N1CCC[C@@H](n2nc(-c3ccc(Oc4ccccc4)cc3)c3c(N)ncnc32)C1 [Ibrutinib] + Nc1ncn([C@H]2C[C@H](O)[C@@H](CO)O2)c(=O)n1 [Decitabine] (partner 2 µM)
The essentials:
as §1

In the supplement of paper PMC10307832 one finds relative viability data, which are given here for nine cell lines.

On to HCC-827, for which the relative viability was determined as 0.397 with PAC-1 + Tozasertib (first compound 0.02 µM); 0.401 with PAC-1 + Tozasertib (first compound 0.06325 µM); 0.4 with PAC-1 + Tozasertib (first compound 0.2 µM); 0.421 in the experiment with PAC-1 + Tozasertib (first compound 2 µM); 0.981 with PAC-1 + Linsitinib (first compound 0.02 µM); 0.966 in the experiment with PAC-1 + Linsitinib (first compound 0.06325 µM). The relative viability in the experiment with PAC-1 + Linsitinib (first compound 0.2 µM) amounted to 0.932; with PAC-1 + Linsitinib (first compound 2 µM), 0.942; with Ibrutinib + Crizotinib (first compound 0.005 µM), 0.89; with Ibrutinib + Crizotinib (first compound 0.01581 µM), 0.923; with Ibrutinib + Crizotinib (first compound 0.05 µM), 0.927; in the experiment with Ibrutinib + Crizotinib (first compound 0.1581 µM) it was 0.94. The relative viability in the experiment with Ibrutinib + Crizotinib (first compound 0.5 µM) worked out at 0.184; with Ibrutinib + Decitabine (first compound 0.005 µM), 0.275; in the experiment with Ibrutinib + Decitabine (first compound 0.01581 µM) it was 0.345; in the experiment with Ibrutinib + Decitabine (first compound 0.05 µM), 0.262; with Ibrutinib + Decitabine (first compound 0.1581 µM), 0.287; in the experiment with Ibrutinib + Decitabine (first compound 0.5 µM) it was 0.195.
HOP-62: the relative viability was found to be 0.346 in the experiment with PAC-1 + Tozasertib (first compound 0.02 µM); 0.395 in the experiment with PAC-1 + Tozasertib (first compound 0.06325 µM); 0.349 in the experiment with PAC-1 + Tozasertib (first compound 0.2 µM); 0.355 with PAC-1 + Tozasertib (first compound 2 µM); 1.01 with PAC-1 + Linsitinib (first compound 0.02 µM); 0.927 with PAC-1 + Linsitinib (first compound 0.06325 µM). In addition, the relative viability worked out at 0.977 in the experiment with PAC-1 + Linsitinib (first compound 0.2 µM); 0.939 with PAC-1 + Linsitinib (first compound 2 µM); 0.988 in the experiment with Ibrutinib + Crizotinib (first compound 0.005 µM); 0.947 with Ibrutinib + Crizotinib (first compound 0.01581 µM); 1 with Ibrutinib + Crizotinib (first compound 0.05 µM); 0.948 with Ibrutinib + Crizotinib (first compound 0.1581 µM). Besides, the relative viability with Ibrutinib + Decitabine (first compound 0.005 µM) amounted to 0.242; in the experiment with Ibrutinib + Decitabine (first compound 0.05 µM), 0.22; with Ibrutinib + Decitabine (first compound 0.1581 µM) it was 0.249; with Ibrutinib + Decitabine (first compound 0.5 µM), 0.231.
For the cell line IA-LM, the relative viability stood at 0.771 with PAC-1 + Linsitinib (first compound 0.02 µM); 0.716 with PAC-1 + Linsitinib (first compound 0.06325 µM); 0.639 with PAC-1 + Linsitinib (first compound 0.2 µM); 0.58 with PAC-1 + Linsitinib (first compound 2 µM); 0.75 in the experiment with Ibrutinib + Crizotinib (first compound 0.005 µM); 0.8 in the experiment with Ibrutinib + Crizotinib (first compound 0.01581 µM). Also, the relative viability with Ibrutinib + Crizotinib (first compound 0.05 µM) stood at 1.11; with Ibrutinib + Crizotinib (first compound 0.1581 µM), 1; with Ibrutinib + Crizotinib (first compound 0.5 µM) it was 0.947.
Consider LC-2-ad, for which the relative viability with PAC-1 + Tozasertib (first compound 0.02 µM) amounted to 0.456; with PAC-1 + Tozasertib (first compound 0.06325 µM), 0.48; in the experiment with PAC-1 + Tozasertib (first compound 0.2 µM) it was 0.357; with PAC-1 + Tozasertib (first compound 2 µM), 0.449; in the experiment with PAC-1 + Linsitinib (first compound 0.02 µM) it was 0.849; with PAC-1 + Linsitinib (first compound 0.06325 µM), 0.825. The relative viability was 0.782 with PAC-1 + Linsitinib (first compound 0.2 µM); 0.78 with PAC-1 + Linsitinib (first compound 2 µM); 0.449 with Ibrutinib + Crizotinib (first compound 0.01581 µM); 0.546 with Ibrutinib + Crizotinib (first compound 0.05 µM); 0.476 in the experiment with Ibrutinib + Crizotinib (first compound 0.1581 µM); 0.419 in the experiment with Ibrutinib + Crizotinib (first compound 0.5 µM). Besides, the relative viability in the experiment with Ibrutinib + Decitabine (first compound 0.005 µM) worked out at 0.842; with Ibrutinib + Decitabine (first compound 0.01581 µM), 0.776; with Ibrutinib + Decitabine (first compound 0.05 µM), 0.774; with Ibrutinib + Decitabine (first compound 0.1581 µM) it was 0.814; with Ibrutinib + Decitabine (first compound 0.5 µM), 0.765.
Regarding LCLC-97TM1, the relative viability with PAC-1 + Tozasertib (first compound 0.02 µM) turned out to be 0.22; with PAC-1 + Tozasertib (first compound 0.06325 µM), 0.286; in the experiment with PAC-1 + Tozasertib (first compound 0.2 µM), 0.217; with PAC-1 + Tozasertib (first compound 2 µM), 0.225; with PAC-1 + Linsitinib (first compound 0.06325 µM), 0.196; in the experiment with PAC-1 + Linsitinib (first compound 0.2 µM), 0.196. For the same cell line, the relative viability with PAC-1 + Linsitinib (first compound 2 µM) worked out at 0.165; in the experiment with Ibrutinib + Crizotinib (first compound 0.005 µM) it was 0.365; in the experiment with Ibrutinib + Crizotinib (first compound 0.01581 µM) it was 0.369; with Ibrutinib + Crizotinib (first compound 0.1581 µM) it was 0.553; with Ibrutinib + Crizotinib (first compound 0.5 µM) it was 0.313; with Ibrutinib + Decitabine (first compound 0.005 µM), 0.251. The relative viability in the experiment with Ibrutinib + Decitabine (first compound 0.01581 µM) came out at 0.226; with Ibrutinib + Decitabine (first compound 0.05 µM), 0.236; in the experiment with Ibrutinib + Decitabine (first compound 0.1581 µM) it was 0.205; in the experiment with Ibrutinib + Decitabine (first compound 0.5 µM), 0.208.
As for LCLC-103H, the relative viability is 0.56 with PAC-1 + Tozasertib (first compound 0.02 µM); 0.492 with PAC-1 + Tozasertib (first compound 0.06325 µM); 0.494 with PAC-1 + Tozasertib (first compound 0.2 µM); 0.463 with PAC-1 + Tozasertib (first compound 2 µM); 1.04 in the experiment with PAC-1 + Linsitinib (first compound 0.02 µM); 1.13 with PAC-1 + Linsitinib (first compound 0.06325 µM). Further, the relative viability with PAC-1 + Linsitinib (first compound 0.2 µM) was 1.14; in the experiment with PAC-1 + Linsitinib (first compound 2 µM), 0.98; with Ibrutinib + Crizotinib (first compound 0.005 µM), 1.06; with Ibrutinib + Crizotinib (first compound 0.01581 µM), 1.03; with Ibrutinib + Crizotinib (first compound 0.05 µM), 1.02; with Ibrutinib + Crizotinib (first compound 0.1581 µM) it was 1.06. Besides, the relative viability with Ibrutinib + Crizotinib (first compound 0.5 µM) was 1.04; in the experiment with Ibrutinib + Decitabine (first compound 0.005 µM), 0.685; in the experiment with Ibrutinib + Decitabine (first compound 0.01581 µM), 0.705; in the experiment with Ibrutinib + Decitabine (first compound 0.05 µM), 0.754; in the experiment with Ibrutinib + Decitabine (first compound 0.1581 µM) it was 0.759; with Ibrutinib + Decitabine (first compound 0.5 µM), 0.725.
Regarding LK-2, the relative viability in the experiment with PAC-1 + Tozasertib (first compound 0.02 µM) was found to be 0.174; with PAC-1 + Tozasertib (first compound 0.06325 µM) it was 0.186; with PAC-1 + Tozasertib (first compound 0.2 µM), 0.199; in the experiment with PAC-1 + Tozasertib (first compound 2 µM) it was 0.175; with PAC-1 + Linsitinib (first compound 0.02 µM), 0.49; in the experiment with PAC-1 + Linsitinib (first compound 0.06325 µM), 0.807. Further, the relative viability with PAC-1 + Linsitinib (first compound 0.2 µM) was 0.537; with PAC-1 + Linsitinib (first compound 2 µM), 0.621; with Ibrutinib + Crizotinib (first compound 0.01581 µM), 0.355; with Ibrutinib + Crizotinib (first compound 0.05 µM) it was 0.216; with Ibrutinib + Crizotinib (first compound 0.1581 µM), 0.275; in the experiment with Ibrutinib + Crizotinib (first compound 0.5 µM), 0.252. In addition, the relative viability with Ibrutinib + Decitabine (first compound 0.005 µM) is 0.19; with Ibrutinib + Decitabine (first compound 0.01581 µM), 0.244; with Ibrutinib + Decitabine (first compound 0.05 µM), 0.261; with Ibrutinib + Decitabine (first compound 0.1581 µM), 0.217; with Ibrutinib + Decitabine (first compound 0.5 µM) it was 0.251.
Take LOU-NH91: the relative viability with PAC-1 + Tozasertib (first compound 0.02 µM) was determined as 0.624; with PAC-1 + Tozasertib (first compound 0.06325 µM) it was 0.7; in the experiment with PAC-1 + Tozasertib (first compound 0.2 µM), 0.645; in the experiment with PAC-1 + Tozasertib (first compound 2 µM), 0.679; in the experiment with PAC-1 + Linsitinib (first compound 0.02 µM), 0.925; in the experiment with PAC-1 + Linsitinib (first compound 0.06325 µM), 0.964. In addition, the relative viability with PAC-1 + Linsitinib (first compound 0.2 µM) was 0.906; with PAC-1 + Linsitinib (first compound 2 µM), 0.915; with Ibrutinib + Crizotinib (first compound 0.005 µM) it was 0.697; with Ibrutinib + Crizotinib (first compound 0.01581 µM), 0.557; with Ibrutinib + Crizotinib (first compound 0.05 µM), 0.666; in the experiment with Ibrutinib + Crizotinib (first compound 0.1581 µM) it was 0.738. Also, the relative viability with Ibrutinib + Crizotinib (first compound 0.5 µM) was 0.526; in the experiment with Ibrutinib + Decitabine (first compound 0.005 µM), 0.786; in the experiment with Ibrutinib + Decitabine (first compound 0.01581 µM) it was 0.745; with Ibrutinib + Decitabine (first compound 0.05 µM), 0.762; with Ibrutinib + Decitabine (first compound 0.1581 µM), 0.807; with Ibrutinib + Decitabine (first compound 0.5 µM), 0.648.
With LU99A, the relative viability came out at 0.309 in the experiment with PAC-1 + Tozasertib (first compound 0.02 µM); 0.254 with PAC-1 + Tozasertib (first compound 0.06325 µM); 0.247 with PAC-1 + Tozasertib (first compound 0.2 µM); 0.286 in the experiment with PAC-1 + Tozasertib (first compound 2 µM); 0.562 with PAC-1 + Linsitinib (first compound 0.02 µM); 0.514 with PAC-1 + Linsitinib (first compound 0.06325 µM). Besides, the relative viability in the experiment with PAC-1 + Linsitinib (first compound 0.2 µM) amounted to 0.518; with PAC-1 + Linsitinib (first compound 2 µM) it was 0.489; with Ibrutinib + Crizotinib (first compound 0.005 µM), 0.522; with Ibrutinib + Crizotinib (first compound 0.01581 µM) it was 0.605; in the experiment with Ibrutinib + Crizotinib (first compound 0.05 µM), 0.619; in the experiment with Ibrutinib + Crizotinib (first compound 0.1581 µM), 0.644. Moreover, the relative viability with Ibrutinib + Crizotinib (first compound 0.5 µM) was 0.644; in the experiment with Ibrutinib + Decitabine (first compound 0.005 µM) it was 0.857; with Ibrutinib + Decitabine (first compound 0.01581 µM), 0.796; with Ibrutinib + Decitabine (first compound 0.05 µM), 0.947; with Ibrutinib + Decitabine (first compound 0.1581 µM), 0.937; in the experiment with Ibrutinib + Decitabine (first compound 0.5 µM), 0.874.
